From ChEMBL document CHEMBL5532678, “Comprehensive Insights that Targeting PIM for Cancer Therapy: Prospects and Obstacles” (J Med Chem, 2024)
Values belong to the compound of their own block, whether it stands above or below them.

Key:
[1] = biological target: T1, Serine/threonine-protein kinase pim-1 (Homo sapiens, UniProt P11309); test: Inhibition of human PIM1 using KKRNRTLTK as substrate in presence of [gamma-33P]-ATP by hotspot kinase assay
[2] = biological target: T2, Prostaglandin G/H synthase 2 (Homo sapiens, UniProt P35354); test: Inhibition of COX2 (unknown origin) fluorescence based analysis
T2 sequence (P35354 whole entry): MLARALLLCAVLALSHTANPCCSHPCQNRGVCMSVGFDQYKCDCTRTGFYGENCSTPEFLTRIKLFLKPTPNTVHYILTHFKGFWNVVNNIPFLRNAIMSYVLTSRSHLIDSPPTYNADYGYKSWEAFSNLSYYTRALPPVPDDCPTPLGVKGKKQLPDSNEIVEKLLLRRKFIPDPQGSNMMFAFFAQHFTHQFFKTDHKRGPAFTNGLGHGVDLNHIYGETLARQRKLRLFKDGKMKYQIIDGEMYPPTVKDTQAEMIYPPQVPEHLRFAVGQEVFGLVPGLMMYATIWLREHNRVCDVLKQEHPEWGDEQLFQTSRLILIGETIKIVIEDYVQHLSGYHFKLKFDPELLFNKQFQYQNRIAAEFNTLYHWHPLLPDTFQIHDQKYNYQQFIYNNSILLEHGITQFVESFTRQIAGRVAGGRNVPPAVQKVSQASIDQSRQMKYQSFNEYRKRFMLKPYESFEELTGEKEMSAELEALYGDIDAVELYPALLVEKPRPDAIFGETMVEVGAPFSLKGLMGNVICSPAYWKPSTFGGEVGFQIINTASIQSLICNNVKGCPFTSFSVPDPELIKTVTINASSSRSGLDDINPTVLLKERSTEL

[3] = biological target: T3, Serine/threonine-protein kinase pim-2 (Homo sapiens, UniProt Q9P1W9); test: Inhibition of N-terminal GST-tagged full length human PIM2 (1 to 311 residues) expressed in baculovirus expression system using S6K2 peptide as substrate at 1 uM in presence of ATP by Mobility shift assay
[4] = biological target: T4, Polyunsaturated fatty acid 5-lipoxygenase (Homo sapiens, UniProt P09917); test: Inhibition of 5-LOX in human PMNL cells; format: cell-based
T4 sequence (P09917 whole entry): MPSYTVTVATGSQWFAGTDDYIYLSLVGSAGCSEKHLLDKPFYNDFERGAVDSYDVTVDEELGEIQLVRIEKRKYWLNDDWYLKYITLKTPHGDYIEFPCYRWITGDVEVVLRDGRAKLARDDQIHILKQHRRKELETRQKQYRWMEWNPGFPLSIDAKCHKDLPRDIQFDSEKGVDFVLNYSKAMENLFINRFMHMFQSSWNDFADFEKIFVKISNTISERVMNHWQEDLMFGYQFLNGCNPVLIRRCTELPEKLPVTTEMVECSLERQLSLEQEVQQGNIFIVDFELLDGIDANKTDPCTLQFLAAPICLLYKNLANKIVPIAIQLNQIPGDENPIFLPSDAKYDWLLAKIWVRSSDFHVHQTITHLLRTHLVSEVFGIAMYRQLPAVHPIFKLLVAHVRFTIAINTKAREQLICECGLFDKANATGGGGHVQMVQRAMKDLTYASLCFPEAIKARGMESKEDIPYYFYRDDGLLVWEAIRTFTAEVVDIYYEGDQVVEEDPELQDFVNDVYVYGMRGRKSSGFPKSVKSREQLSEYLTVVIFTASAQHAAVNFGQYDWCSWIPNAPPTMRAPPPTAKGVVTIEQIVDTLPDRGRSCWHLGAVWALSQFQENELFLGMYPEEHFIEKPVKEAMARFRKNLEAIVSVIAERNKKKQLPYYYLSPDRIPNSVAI

[5] = biological target: T1, Serine/threonine-protein kinase pim-1; test: Inhibition of human recombinant PIM1
[6] = biological target: Prostaglandin G/H synthase 1 (Homo sapiens, UniProt P23219); test: Inhibition of COX1 (unknown origin) fluorescence based analysis
[7] = tested on: PC-3; test: Anticancer activity against human PC-3 cells assessed as inhibition of cell growth incubated for 24 hrs by MTT assay; format: functional, cell-based; conditions: PC-3, 24 h
[8] = tested on: MCF7; test: Antiproliferative activity against human MCF7 cells assessed as reduction in cell growth incubated for 48 hrs by MTT assay; format: functional, cell-based; conditions: MCF7, 48 h
[9] = tested on: HepG2; test: Antiproliferative activity against human HepG2 cells assessed as inhibition of cell growth incubated for 72 hrs by MTT assay; format: functional, cell-based; conditions: HepG2, 72 h
[10] = biological target: T1, Serine/threonine-protein kinase pim-1; test: Inhibition of human PIM1 by discoverX kinome scan assay
[11] = biological target: T1, Serine/threonine-protein kinase pim-1
[12] = biological target: T1, Serine/threonine-protein kinase pim-1; test: Inhibition of human full length-His6 tagged PIM1 (1 to 312 residues) expressed in Escherichia coli BL21 (DE3) using RSRHSSYPAGT as peptide substrate incubated for 10 mins in presence of [gamma-32P]ATP by radiometric scintillation assay
[13] = biological target: T5, Serine/threonine-protein kinase pim-3 (Homo sapiens, UniProt Q86V86); test: Inhibition of N-terminal GST-tagged full length human PIM3 (1 to 326 residues) expressed in baculovirus expression system using S6K2 peptide as substrate at 1 uM in presence of ATP by Mobility shift assay
[14] = biological target: T3, Serine/threonine-protein kinase pim-2; test: Inhibition of human full length-His6 tagged PIM2 (1 to 311 residues) expressed in Escherichia coli BL21 (DE3) assessed as inhibition constant using RSRHSSYPAGT as peptide substrate incubated for 10 mins in presence of [gamma-32P]ATP by radiometric scintillation assay
[15] = biological target: T5, Serine/threonine-protein kinase pim-3
[16] = biological target: T3, Serine/threonine-protein kinase pim-2
[17] = biological target: Dual specificity protein kinase CLK1 (Homo sapiens, UniProt P49759); test: Inhibition of CLK1 (unknown origin) using GRSRSRSRSRSRSRS as substrate incubated for 15 mins in presence of ATP by gamma32P-ATP based analysis
[18] = biological target: T3, Serine/threonine-protein kinase pim-2; test: Inhibition of PIM2 (unknown origin) by FRET based Z-LYTE kinase assay
[19] = biological target: T5, Serine/threonine-protein kinase pim-3; test: Inhibition of PIM3 (unknown origin) by FRET based Z-LYTE kinase assay
[20] = tested on: HCT-116; test: Cytotoxicity against human HCT-116 cells assessed as reduction in cell viability incubated for 72 hrs by MTT assay; format: functional, cell-based; conditions: HCT-116, 72 h
[21] = tested on: MCF7; test: Cytotoxicity against human MCF7 cells assessed as reduction in cell growth incubated for 72 hrs by MTT assay; format: functional, cell-based; conditions: MCF7, 72 h
[22] = tested on: MCF7; test: Cytotoxicity against human MCF7 cells assessed as reduction in cell viability by MTT assay; format: functional, cell-based

Compound: N#Cc1c(-c2ccco2)cc(-c2ccc(N3C(=O)c4ccccc4C3=O)cc2)nc1N
IC50 [7]: 33400 nM
IC50 [8]: 19700 nM
IC50 [9]: 31100 nM
IC50 [10]: 630 nM

Compound: NCCN1CCN(CCN2c3ccncc3Oc3ccc(Br)cc32)CC1
IC50 [11]: 0.9 nM

Compound: N#Cc1c(-c2ccccc2O)cc(-c2ccc(N3C(=O)c4ccccc4C3=O)cc2)nc1N
IC50 [7]: 27600 nM
IC50 [8]: 13400 nM
IC50 [9]: 14600 nM
IC50 [10]: 9760 nM

Compound: Fc1cncc(-c2ccc3[nH]c4ncnc(N[C@H]5CC[C@H](N6CCOCC6)CC5)c4c3c2)c1
IC50 [1]: 4.6 nM

Compound: C[C@@H]1CCCN(c2c(/C=C3\SC(=O)NC3=O)cccc2-c2ccccc2)C1
IC50 [15]: 3 nM
IC50 [11]: 3 nM
IC50 [16]: 5 nM

Compound: NC(=O)c1c(O)cc(O)c2c1oc1cc(O)ccc12
IC50 [17]: 26 nM

Compound: Cc1ccc(-c2cncc(NCCN(C)C)n2)cc1CC1SC(=O)NC1=O (stereo not given)
IC50 [18]: 6 nM
IC50 [19]: 6 nM

Compound: Cc1nc2sc3c(c2c(C)c1Br)NC(c1ccccc1Cl)NC3=O (stereo not given)
IC50 [20]: 18600 nM
IC50 [21]: 23800 nM

Compound: Cc1nc2sc(C(=O)Nc3ccc(F)c(Cl)c3)c(N)c2c(C)c1Br
IC50 [22]: 75900 nM
IC50 [10]: 35700 nM

Compound: CC(C)n1c(C2CCNCC2)nc2c([N+](=O)[O-])c(Br)c(Br)cc21 [DAPOLSERTIB]
IC50 [15]: 3 nM
IC50 [11]: 2 nM
IC50 [16]: 2 nM

Compound: CC(C)(O)[C@H]1CC[C@H](Nc2ccc3ncc(-c4cccc(C(F)(F)F)c4)n3n2)CC1 [NUVISERTIB]
IC50 [15]: 42 nM
IC50 [11]: 5 nM
IC50 [16]: 239 nM

The next lines start with the values.

IC50 [1]: 9390 nM
Compound: CCc1ccc(NC(=O)c2sc3nc(-c4ccc(OC)c(OC)c4)cc(-c4ccc(O)c(O)c4)c3c2N)cc1

IC50 [2]: 91 nM
IC50 [3]: 1380 nM
IC50 [4]: 3540 nM
IC50 [5]: 2960 nM
IC50 [6]: 9400 nM
Compound: Cc1ccc(C(C)C)c(O)c1/C=N/N=C1NC(=O)C(CC(=O)O)S1 (stereo not given)

IC50 [12]: 370 nM
IC50 [13]: 300 nM
IC50 [14]: 410 nM
Compound: COc1ccc(/C=C/C(=O)/C=C2/C(=O)Nc3cc(Br)ccc32)cc1

IC50 [1]: 344 nM
Compound: N#Cc1c(-c2ccccc2)cc(-c2ccccc2)nc1OCCCC(=O)NO

IC50 [12]: 1620 nM
IC50 [13]: 1740 nM
IC50 [14]: 2460 nM
Compound: COc1ccc(/C=C/C(=O)CC2(O)C(=O)Nc3cc(Br)ccc32)cc1 (stereo not given)

IC50 [1]: 365 nM
Compound: N#Cc1c(-c2ccccc2)cc(-c2ccccc2)nc1OCCCCC(=O)NO
